Experiments:
[1] = target: T1, Prostaglandin G/H synthase 1 (Homo sapiens, UniProt P23219); experiment: Inhibition of Prostaglandin G/H synthase 1 (COX-1)
[2] = target: T2, Prostaglandin G/H synthase 2 (Homo sapiens, UniProt P35354); experiment: Inhibition of Prostaglandin G/H synthase 2 (COX-2)
T2 sequence (P35354 whole entry): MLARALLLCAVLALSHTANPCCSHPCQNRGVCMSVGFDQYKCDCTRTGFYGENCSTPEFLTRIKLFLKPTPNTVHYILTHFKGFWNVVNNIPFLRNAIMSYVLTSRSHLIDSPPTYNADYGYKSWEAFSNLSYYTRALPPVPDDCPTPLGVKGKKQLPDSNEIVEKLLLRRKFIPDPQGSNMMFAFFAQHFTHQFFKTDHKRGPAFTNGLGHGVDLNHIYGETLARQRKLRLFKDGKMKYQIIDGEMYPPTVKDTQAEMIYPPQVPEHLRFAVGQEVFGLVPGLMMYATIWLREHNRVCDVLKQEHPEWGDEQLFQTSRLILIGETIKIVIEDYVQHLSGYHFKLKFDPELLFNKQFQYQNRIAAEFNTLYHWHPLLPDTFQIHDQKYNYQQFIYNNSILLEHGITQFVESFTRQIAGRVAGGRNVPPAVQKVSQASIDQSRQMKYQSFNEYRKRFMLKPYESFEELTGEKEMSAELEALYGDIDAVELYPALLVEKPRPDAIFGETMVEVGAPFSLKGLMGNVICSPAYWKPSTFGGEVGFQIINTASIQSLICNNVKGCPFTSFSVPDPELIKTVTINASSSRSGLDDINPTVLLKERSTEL

[3] = target: T1, Prostaglandin G/H synthase 1; experiment: Relative activity against COX-1/COX-2
Rattus norvegicus = experiment: Compound was tested for inhibitory activity in carrageenan rat foot edema assay; format: functional

T1 sequence (P23219 whole entry): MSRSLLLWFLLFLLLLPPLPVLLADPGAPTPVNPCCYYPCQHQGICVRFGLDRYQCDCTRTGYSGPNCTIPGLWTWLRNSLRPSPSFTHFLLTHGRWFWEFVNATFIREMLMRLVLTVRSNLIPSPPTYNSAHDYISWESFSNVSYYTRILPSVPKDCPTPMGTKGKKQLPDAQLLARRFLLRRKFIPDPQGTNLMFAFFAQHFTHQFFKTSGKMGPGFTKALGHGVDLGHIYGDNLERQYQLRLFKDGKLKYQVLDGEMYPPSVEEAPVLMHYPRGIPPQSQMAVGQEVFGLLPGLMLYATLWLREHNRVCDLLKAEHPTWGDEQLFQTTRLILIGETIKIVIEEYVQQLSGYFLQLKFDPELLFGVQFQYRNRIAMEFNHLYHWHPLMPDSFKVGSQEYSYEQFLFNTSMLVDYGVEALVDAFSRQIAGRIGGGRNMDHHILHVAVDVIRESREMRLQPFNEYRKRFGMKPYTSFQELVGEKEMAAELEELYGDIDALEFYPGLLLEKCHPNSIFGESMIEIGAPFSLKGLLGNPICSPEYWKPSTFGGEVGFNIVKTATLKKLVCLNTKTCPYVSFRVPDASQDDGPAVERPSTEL

Row | Compound | IC50 [1] | IC50 [2] | Ratio [3] | ED50 (Rattus norvegicus)
1 | COc1ccc2c(c1)CSc1c(C(F)(F)F)nn(-c3ccc(S(N)(=O)=O)cc3)c1-2 | 300 nM | 13 nM | 23 | 
2 | Cc1cc2c(cc1F)-c1c(c(C(F)(F)F)nn1-c1ccc(S(N)(=O)=O)cc1)SC2 | 11100 nM | 16 nM | 693 | 15 mg/kg
3 | COc1cc2c(cc1F)-c1c(c(C(F)F)nn1-c1ccc(S(N)(=O)=O)cc1)SC2 | > 100000 nM | 32 nM | > 3120 | 
4 | NS(=O)(=O)c1ccc(-n2nc(C(F)(F)F)c3c2-c2ccccc2OC3)cc1 |  | 1330 nM | 5.3 | 
5 | COc1cc2c(cc1F)-c1c(c(C(F)(F)F)nn1-c1ccc(S(N)(=O)=O)cc1)[S+]([O-])C2 (centres undefined) | > 100000 nM | 1500 nM | > 67 | 
6 | COc1cc2c(cc1F)-c1c(c(C(F)(F)F)nn1-c1ccc(S(C)(=O)=O)cc1)SC2 | > 100000 nM | 75 nM | > 1330 | 
7 | NS(=O)(=O)c1ccc(-n2nc(C(F)(F)F)c3c2-c2ccccc2CS3)cc1 |  | 20 nM | 20 | 
8 | NS(=O)(=O)c1ccc(-n2nc(C(F)(F)F)c3c2-c2ccc(F)cc2CS3)cc1 | 270 nM | 40 nM | 7 | 
9 | COc1cc2c(cc1F)-c1c(c(C(F)(F)F)nn1-c1ccc(S(N)(=O)=O)cc1)SC2 | 2730 nM | 9 nM | 303 | 17.7 mg/kg
10 | Cc1ccc2c(c1)CSc1c(C(F)(F)F)nn(-c3ccc(S(N)(=O)=O)cc3)c1-2 | 790 nM | 22 nM | 36 | 
11 | NS(=O)(=O)c1ccc(-n2nc(C(F)(F)F)c3c2-c2cc(F)ccc2CS3)cc1 | 6240 nM | 21 nM | 297 | 
12 | NS(=O)(=O)c1ccc(-n2nc(C(F)(F)F)c3c2-c2cc(F)c(F)cc2CS3)cc1 | 2670 nM | 6 nM | 381 | 
13 | N#Cc1nn(-c2ccc(S(N)(=O)=O)cc2)c2c1SCc1cc(F)ccc1-2 | 760 nM | 140 nM | 5 | 

From ChEMBL document CHEMBL1151064, “Conformationally restricted 1,5-diarylpyrazoles are selective COX-2 inhibitors” (Bioorg Med Chem Lett, 1996)
